Test results published in the NIST ThermoML archive (doi:10.1016/j.jct.2016.08.026).
± gives the expanded uncertainty stated by the source.

Key:
[1] = 101 kPa, Liquid, Pycnometric method
[2] = xn = mol fraction of the nth substance listed; settings: 101 kPa, Liquid, Pycnometric method, x1 = 1

Structure (SMILES) | mass density ([1]; 293.15 K) | mass density ([1]; 298.15 K) | mass density ([1]; 303.15 K) | mass density ([1]; 308.15 K) | mass density ([1]; 313.15 K) | mass density ([1]; 318.15 K) | mass density ([2]; 293.15 K) | mass density ([2]; 298.15 K) | mass density ([2]; 303.15 K) | mass density ([2]; 308.15 K) | mass density ([2]; 313.15 K) | mass density ([2]; 318.15 K)
C=CC(=O)OC(C)(C)C [tert-butyl acrylate] | 884.13 ± 1 kg/m3 | 879.66 ± 1 kg/m3 | 875.2 ± 1 kg/m3 | 870.74 ± 1 kg/m3 | 866.28 ± 1 kg/m3 | 861.82 ± 1 kg/m3 | – | – | – | – | – | –
CC#N [acetonitrile] + C=CC(=O)OC | – | – | – | – | – | – | 782.12 ± 1 kg/m3 | 776.82 ± 1 kg/m3 | 771.52 ± 1 kg/m3 | 766.21 ± 1 kg/m3 | 760.9 ± 1 kg/m3 | 755.59 ± 1 kg/m3
CC#N [acetonitrile] + C=CC(=O)OCC | – | – | – | – | – | – | 782.12 ± 1 kg/m3 | 776.82 ± 1 kg/m3 | 771.52 ± 1 kg/m3 | 766.21 ± 1 kg/m3 | 760.9 ± 1 kg/m3 | 755.59 ± 1 kg/m3
CC#N [acetonitrile] + C=CC(=O)OC(C)(C)C | – | – | – | – | – | – | 782.12 ± 1 kg/m3 | 776.82 ± 1 kg/m3 | 771.52 ± 1 kg/m3 | 766.21 ± 1 kg/m3 | 760.9 ± 1 kg/m3 | 755.59 ± 1 kg/m3
CC#N [acetonitrile] + C=CC(=O)OCCCC | – | – | – | – | – | – | 782.12 ± 1 kg/m3 | 776.82 ± 1 kg/m3 | 771.52 ± 1 kg/m3 | 766.21 ± 1 kg/m3 | 760.9 ± 1 kg/m3 | 755.59 ± 1 kg/m3
CC#N [acetonitrile] | 782.12 ± 1 kg/m3 | 776.82 ± 1 kg/m3 | 771.52 ± 1 kg/m3 | 766.21 ± 1 kg/m3 | 760.9 ± 1 kg/m3 | 755.59 ± 1 kg/m3 | – | – | – | – | – | –
